# Test results reported in patent publication US10562857B2 (AFASCI, Inc., priority 2015, dated 2020).
# Entries after “also recorded” stand apart in the source; their conditions may differ.
# Tests used:
# [1] = test system: harmaline-induced tremor in mice; experiment: Harmaline-induced essential tremor model in mice; format: in vivo, mouse
# Method: FIG. 12. Effects of EXAMPLE-128 on harmaline-induced essential tremor model in mice. Harmaline was dissolved in saline and administrated at 10 mg/kg (S.C.) mice (C57BL/6, male, 3-5 months). Ten minutes after tremors occurred, mice were treated with either EXAMPLE-128 (30 mg/kg, I.P.) or vehicle (2% DMSO in 0.5% HPC).
# Harmaline can induce tremors modeling human essential tremor manifested as postural and kinetic tremors (Nahab et al., 2012). Harmaline was dissolved in saline and administrated at 10 mg/kg (s.c.) to mice (C57BL/6, male, 3 months) and the mice were immediately returned to homecage monitor with an piezoelectric sensor operated by the SmartCage™ for continual recordings for 60 min. […] Mice were randomly assigned to be treated with EXAMPLE-128 (3, 10 or 30 mg/kg, I.P.) or vehicle (2% DMSO in 0.5% HPC), starting ten min after tremors began, Tremor episode numbers and each episode's duration were offline human scored.
# [2] = test system: formalin-induced inflammation in mice; experiment: Formalin-induced pain in mice; format: in vivo, mouse; conditions: 30 mg/kg I.P. 30 min before 10% formalin
# Method: FIG. 8. Effects of EXAMPLE-128 (30 mg/kg, I.P.) or vehicle on formalin-induced inflammation in male mice (C57BL/6, ˜3 months old; n=8 mice per group). The test compound was I.P. administered 30 min prior to local injection of 10% formalin into the left hindpaw (10 μl). Time spent in grooming, licking or biting the injury paw was manually scored immediately following formalin injection in 5-min time bin for 45 min.
# Formalin-induced biphasic response, nociception followed by inflammatory pain in a mouse hindpaw, is an acute pain and chemical-induced inflammatory pain model. The EXAMPLE-128 was tested in this model. Mice (C57BL/6, male, ˜2 months old; n=8 mice per treatment group) received a 10 μl intraplantar injection of 10% formalin in saline into the left hindpaw. Pain response scoring includes counts per episode of time of reactions to the pain stimulus as indicated by licks, twitches, raising or shaking of the injected paw.
# [3] = test system: baclofen-induced absence seizures in mice; experiment: Baclofen-induced absence seizures in mice (EEG spike wave discharges); format: in vivo, mouse; conditions: 30 mg/kg I.P. 30 min before baclofen
# Description: FIG. 11. Effects of EXAMPLE-128 on baclofen-induced absence seizures in mice.
# Absence seizures, especially childhood absence epilepsy, is characterized by a brief loss of consciousness and muscle tone as the primary manifestations. Ethosuximide, a weak and non-selective T-type calcium channel inhibitor, is effective in treating only absence seizures (Huguenard J R, 2002); while the GABAB baclofen exacerbates transgenic absence seizure models and alone induces absence seizures in wild-type animals (Han et al., 2012). […] The baclofen-induced brain seizure activity mimics absence seizures.
# [4] = test system: taxol-induced neuropathic pain model in mice; experiment: Taxol-induced neuropathic pain in mice, von Frey test; format: in vivo, mouse; conditions: taxol 4 mg/kg I.P., 3, 10 or 30 mg/kg I.P.
# Method: FIG. 6A. Effects of EXAMPLE-115 on taxol (4 mg/kg, I.P.)-induced neuropathic pain model in mice. Mechanical pain thresholds of left hindpaws were assessed using von Frey monofilament test. Each mouse received either EXAMPLE-115 (3, 10 or 30 mg/kg, I.P.) or vehicle (2% DMSO in 0.5% HPC, I.P.; n=8 per group). Injection of taxol lowered mechanical pain thresholds.
# FIG. 6B. Effects of EXAMPLE-123 on taxol (4 mg/kg, I.P.)-induced neuropathic pain model in a separate cohort of mice. Mechanical pain thresholds of left hindpaws were assessed using von Frey monofilament test. Each mouse received either EXAMPLE-123 (30 mg/kg, I.P., n=8) or vehicle (2% DMSO in 0.5% HPC, I.P.).
# Chemotherapy-induced painful neuropathy is a common side effect associated with chronic treatment with Taxol (paclitaxel) or other anticancer drugs based on cytotoxicity. Taxol or paclitaxel is one of the most popular drugs used for the treatment of various cancers (Chaudhry et al., 1994). The chemotherapy-induced peripheral neuropathy manifests as chronic hyperalgesia and other sensory abnormalities. Taxol (Sigma, 4.0 mg/kg, I.P.) was dissolved in saline containing 5% DMSO (vehicle) and injected to mice (freshly prepared before injection).
# [5] = test system: SNI rats; experiment: Spared nerve injury (SNI) rats, Hargreaves thermal test; format: in vivo, rat; conditions: 30 mg/kg, 1 mL I.P.
# Method: FIG. 3A. Spared Nerve Injury (SNI) rats' left hindpaw withdrawal latencies in response to thermal stimulation (Hargreaves test). Each SNI rat received either EXAMPLE-106, 107, or 115, (each 30 mg/kg, 1 mL I.P.), or vehicle (2% DMSO in 0.5% HPC). Sham rats also received vehicle I.P. injections. […] 40 seconds were cutoff in order to prevent tissue damage. The sham-vehicle serves as a positive control (n=8 per treatment group).
# In additional examples shown here, the analgesic effects were further evaluated in another rat species. Baseline thermal and mechanical thresholds of male rats (Sprague-Dawley rats, 275 g-325 g, Harlan) were taken prior to surgery; baseline thresholds were measured on the rats' left hindpaws. Thirty-two rats underwent the SNI surgery on their left hind leg; 8 rats underwent surgery without injury of the nerves as a sham group. Two weeks post-surgery, the thermal thresholds of each rat were reassessed. […] Each rat received either EXAMPLE-106, -107, -115 (each 30 mg/kg, 1 mL I.P.), or vehicle (2% DMSO in 0.5% HPC). Thermal and mechanical thresholds were measured at 1, 2, 3, 4, 5, 6, 7, and 8 hours post-treatment/dosing. […] The drug actions started around 1 hour post-injection and peaked between 2 and 3 hours, and the drug effects gradually declined to pre-treatment levels over 6-7 hours (FIGS. 3A and B).
# [6] = test system: incision-induced pain in mice; experiment: Incision-induced acute pain in mice, von Frey test; format: in vivo, mouse; conditions: 30 mg/kg I.P.
# Method: FIG. 9. Effects of EXAMPLE-116, -118 or ML218 (a reference compound) on incision-induced acute pain in mice (C57BL/6, male, ˜2 months old; n=8 mice per treatment group). Mechanical pain threshold assessment (von Frey monofilament test) of the mice's incision left hindpaws. Each mouse received either EXAMPLE-116, -118, or ML218 (as a reference compound, each 30 mg/kg, I.P.) or vehicle (2% DMSO in 0.5% HPC, I.P.). Mechanical pain responses were measured at 0.5, 1, 2, 4, and 5 hours after treatment.
# To further confirm the Cav3 modulator effects on acute pain and neurogenic inflammatory pain, an incision-pain mode in mice was used. Postoperative pain model induced by a deep incision in the hindpaw produces robust mechanical allodynia (Pogatzki et al., 2003). Mechanical pain thresholds were assessed using von Frey monofilament test of the incised left hindpaws. Each mouse received either EXAMPLE-116, -118, ML218 (as a reference compound, each 30 mg/kg, I.P.) or vehicle (2% DMSO in 0.5% HPC, I.P., n=8 mice per treatment group). Mechanical pain responses were measured at 0.5, 1, 2, 4, and 5 hours after treatment.
structure (smiles),measurement,setting,value
"CC(C)(C)NC(=O)CN1CCC2(CC1)CC2NC(=O)c1cc(F)cc(Cl)c1 (single isomer, unassigned) [Example 128, (S)—N-(6-(2-(tert-Butylamino)-2-oxoethyl)-6-azaspiro[2.5]octan-1-yl)-3-chloro-5-fluorobenzamide or (R)—N-(6-(2-(tert-Butylamino)-2-oxoethyl)-6-azaspiro[2.5]octan-1-yl)-3-chloro-5-fluorobenzamide]",total tremor occurring time in 60 minutes,"[1]; harmaline 10 mg/kg S.C., 30 mg/kg I.P.",significantly reduced the total tremor occurring time
same,total time spent in tremors,"[1]; harmaline 10 mg/kg s.c., 3, 10 or 30 mg/kg I.P.",significantly reduced the total time spent in tremors in a dose-dependent manner
same,formalin-induced biphasic pain response,[2],produced inhibition of both phases
same,spike wave discharges (SWD) occurring frequency,[3],significantly reduced the SWD occurring frequence; also recorded: significantly reduced the SWD occurring frequency
"O=C(Nc1nnc(-c2ccccc2)o1)c1ccc(Cl)s1 [Example 115, 5-Chloro-N-(5-phenyl-1,3,4-oxadiazol-2-yl)thiophene-2-carboxamide]","mechanical pain threshold, taxol-induced neuropathic pain",[4],produced significant effects on Taxol-induced pain compared to vehicle in a dose-dependent manner; also recorded: reversed the taxol-induced neuropathic pain in a dose-dependent manner
same,left hindpaw withdrawal latency to thermal stimulation (hyperalgesia),[5],elevated both thermal and mechanical thresholds; also recorded: reduced hyperalgesia
"CC(C)(C)CCN1C[C@@H]2[C@@H](CNC(=O)c3cc(Cl)cc(Cl)c3)[C@@H]2C1 [ML218, 3,5-Dichloro-N-[[(1α,5α,6-exo,6α)-3-(3,3-dimethylbutyl)-3-azabicyclo[3.1.0]hex-6-yl]methyl]benzamide, reference compound]","mechanical pain threshold, incision-induced pain",[6],inhibited incision-induced inflammatory pain
